Source: ChEMBL document CHEMBL1201862, “PubChem BioAssay data set” (2004)
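A five-concentration, 48-hour dose response in 96-well plates underlies each endpoint, interpolated linearly between surrounding concentrations. GI50 marks 50% less growth.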 The source made the active and inactive calls. Rule as the data show it: active = GI50 up to about 1.1 µM and inactive = higher.

Columns and labels:
Assay in all cases: inhibition of tumour cell growth, NCI panel, 48 h
[1] = test system: HCT-15
[2] = test system: SW-620
[3] = test system: SNB-19
[4] = test system: BT-549
[5] = test system: A498
[6] = test system: SF-295
[7] = test system: SK-OV-3
[8] = test system: CCRF-CEM
[9] = test system: NCI-H23
[10] = test system: MCF7
[11] = test system: MDA-MB-231
[12] = test system: KM12
[13] = test system: MDA-N
[14] = test system: UACC-62
[15] = test system: MOLT-4
[16] = test system: 786-0
[17] = test system: HCT-116
[18] = test system: UACC-257
[19] = test system: HT-29
[20] = test system: U-251

Compound: COc1cc2c(c(OC)c1OC)-c1ccc(=O)c(O)cc1[C@@H](NC(C)=O)CC2 [COLCHICEINE]
- GI50 [1]: 10.7 µM
- GI50 [2]: 26.5 µM (inactive)
- GI50 [3]: 25.4 µM (inactive)
- GI50 [4]: 14.6 µM (inactive)
- GI50 [5]: 18.4 µM (inactive)
- GI50 [6]: 22.2 µM (inactive)
- GI50 [7]: 40.5 µM (inactive)
- GI50 [8]: 11.9 µM (inactive)
- GI50 [9]: 10.6 µM (inactive)
- GI50 [10]: 17 µM (inactive)
- GI50 [11]: 15.4 µM (inactive)
- GI50 [12]: 15 µM (inactive)
- GI50 [13]: 16.9 µM (inactive)
- GI50 [14]: 13.2 µM (inactive)
- GI50 [15]: 5.42 µM (inactive)
- GI50 [16]: 23.3 µM (inactive)
- GI50 [17]: 27.7 µM (inactive)
- GI50 [18]: 21.2 µM (inactive)
- GI50 [19]: 16.1 µM (inactive)
- GI50 [20]: 15.7 µM (inactive)

Compound: CC(=O)OC1OC(c2ccoc2)C[C@@]12C1CCC3O[C@]3(C)[C@]1(C)[C@H](OC(C)=O)[C@H](OC(C)=O)[C@H]2C (stereo not given in full)
- GI50 [1]: > 37.5 µM
- GI50 [2]: > 37.5 µM (inactive)
- GI50 [3]: > 37.5 µM (inactive)
- GI50 [4]: > 37.5 µM (inactive)
- GI50 [5]: > 37.5 µM (inactive)
- GI50 [6]: > 37.5 µM (inactive)
- GI50 [7]: > 37.5 µM (inactive)
- GI50 [8]: 11.2 µM (inactive)
- GI50 [9]: 30.3 µM (inactive)
- GI50 [10]: > 37.5 µM (inactive)
- GI50 [11]: > 37.5 µM (inactive)
- GI50 [12]: > 37.5 µM (inactive)
- GI50 [13]: > 37.5 µM (inactive)
- GI50 [14]: > 37.5 µM (inactive)
- GI50 [15]: 18.5 µM (inactive)
- GI50 [16]: > 37.5 µM (inactive)
- GI50 [17]: > 37.5 µM (inactive)
- GI50 [18]: > 37.5 µM (inactive)
- GI50 [19]: > 37.5 µM (inactive)
- GI50 [20]: > 37.5 µM (inactive)

Compound: NC(=O)c1nnn(Cc2cc(Cl)c(C(=O)c3ccc(Cl)cc3)c(Cl)c2)c1N [CARBOXYAMIDOTRIAZOLE]
- GI50 [1]: 12.7 µM
- GI50 [2]: 27.1 µM (inactive)
- GI50 [3]: 24.4 µM (inactive)
- GI50 [4]: 21.6 µM (inactive)
- GI50 [5]: 13.7 µM (inactive)
- GI50 [6]: 9.77 µM (inactive)
- GI50 [7]: > 38.5 µM (inactive)
- GI50 [8]: 31 µM (inactive)
- GI50 [9]: 11.8 µM (inactive)
- GI50 [10]: 11.4 µM (inactive)
- GI50 [11]: > 36.2 µM (inactive)
- GI50 [12]: 10.4 µM (inactive)
- GI50 [13]: 10.7 µM (inactive)
- GI50 [14]: 12.9 µM (inactive)
- GI50 [15]: 25.9 µM (inactive)
- GI50 [16]: 27.9 µM (inactive)
- GI50 [17]: 11.1 µM (inactive)
- GI50 [18]: 7.98 µM (inactive)
- GI50 [19]: 22.8 µM (inactive)
- GI50 [20]: 18.2 µM (inactive)

Compound: O=C(O)CSc1ccccc1C(=O)O
- GI50 [1]: > 100 µM
- GI50 [2]: > 100 µM (inactive)
- GI50 [3]: > 100 µM (inactive)
- GI50 [4]: > 100 µM (inactive)
- GI50 [5]: > 100 µM (inactive)
- GI50 [6]: > 100 µM (inactive)
- GI50 [7]: > 100 µM (inactive)
- GI50 [8]: > 100 µM (inactive)
- GI50 [9]: > 100 µM (inactive)
- GI50 [10]: > 100 µM (inactive)
- GI50 [11]: > 100 µM (inactive)
- GI50 [12]: > 100 µM (inactive)
- GI50 [13]: > 100 µM (inactive)
- GI50 [14]: > 100 µM (inactive)
- GI50 [15]: > 100 µM (inactive)
- GI50 [16]: > 100 µM (inactive)
- GI50 [17]: > 100 µM (inactive)
- GI50 [18]: 15 µM (inactive)
- GI50 [19]: > 100 µM (inactive)
- GI50 [20]: > 100 µM (inactive)

Compound: Cc1ccc(S(=O)(=O)NCCCCC(N)C(=O)O)cc1 (stereo not given)
- GI50 [1]: > 100 µM
- GI50 [2]: > 100 µM (inactive)
- GI50 [3]: > 100 µM (inactive)
- GI50 [4]: > 100 µM (inactive)
- GI50 [5]: > 100 µM (inactive)
- GI50 [6]: > 100 µM (inactive)
- GI50 [7]: > 100 µM (inactive)
- GI50 [8]: > 100 µM (inactive)
- GI50 [9]: > 100 µM (inactive)
- GI50 [10]: > 100 µM (inactive)
- GI50 [11]: > 100 µM (inactive)
- GI50 [12]: > 100 µM (inactive)
- GI50 [13]: > 100 µM (inactive)
- GI50 [14]: > 100 µM (inactive)
- GI50 [15]: > 100 µM (inactive)
- GI50 [16]: > 100 µM (inactive)
- GI50 [17]: > 100 µM (inactive)
- GI50 [18]: > 100 µM (inactive)
- GI50 [19]: > 100 µM (inactive)
- GI50 [20]: > 100 µM (inactive)

Compound: NCC(=O)Nc1ccc(Cl)cc1C(=O)c1ccc[nH]1
- GI50 [1]: 38.5 µM
- GI50 [2]: 13.6 µM (inactive)
- GI50 [3]: > 100 µM (inactive)
- GI50 [4]: 70.3 µM (inactive)
- GI50 [5]: > 63.1 µM (inactive)
- GI50 [6]: > 100 µM (inactive)
- GI50 [7]: > 100 µM (inactive)
- GI50 [8]: 3.42 µM (inactive)
- GI50 [9]: 14.3 µM (inactive)
- GI50 [10]: 6.31 µM (inactive)
- GI50 [11]: > 51.1 µM (inactive)
- GI50 [12]: 34 µM (inactive)
- GI50 [13]: 23.4 µM (inactive)
- GI50 [14]: > 68.5 µM (inactive)
- GI50 [15]: 35.8 µM (inactive)
- GI50 [16]: > 83.4 µM (inactive)
- GI50 [17]: 7.64 µM (inactive)
- GI50 [18]: > 100 µM (inactive)
- GI50 [19]: 25.5 µM (inactive)
- GI50 [20]: 15.2 µM (inactive)

Compound: COc1ccc(/N=C2\C(=O)C3=C(OC(C)(C)CC3)c3ccccc32)cc1
- GI50 [1]: 1.05 µM
- GI50 [2]: 0.873 µM (active)
- GI50 [3]: 0.916 µM (active)
- GI50 [4]: 1.1 µM (active)
- GI50 [5]: 7.91 µM (inactive)
- GI50 [6]: 0.863 µM (active)
- GI50 [7]: 1.53 µM (inactive)
- GI50 [8]: 1.48 µM (inactive)
- GI50 [9]: 1.31 µM (inactive)
- GI50 [10]: 0.9 µM (active)
- GI50 [11]: 1.41 µM (inactive)
- GI50 [12]: 0.968 µM (active)
- GI50 [13]: 0.492 µM (active)
- GI50 [14]: 0.94 µM (active)
- GI50 [15]: 2.11 µM (inactive)
- GI50 [16]: 0.971 µM (active)
- GI50 [17]: 0.499 µM (active)
- GI50 [18]: 0.968 µM (active)
- GI50 [19]: 0.741 µM (active)
- GI50 [20]: 0.841 µM (active)

Compound: CCNC(=S)NNC(=O)C12CC3CC(CC(C3)C1)C2
- GI50 [1]: > 100 µM
- GI50 [2]: > 100 µM (inactive)
- GI50 [3]: > 100 µM (inactive)
- GI50 [4]: > 100 µM (inactive)
- GI50 [5]: > 100 µM (inactive)
- GI50 [6]: > 100 µM (inactive)
- GI50 [7]: > 100 µM (inactive)
- GI50 [8]: > 100 µM (inactive)
- GI50 [9]: > 100 µM (inactive)
- GI50 [10]: > 100 µM (inactive)
- GI50 [11]: > 100 µM (inactive)
- GI50 [12]: > 100 µM (inactive)
- GI50 [13]: > 100 µM (inactive)
- GI50 [14]: > 100 µM (inactive)
- GI50 [15]: > 100 µM (inactive)
- GI50 [16]: > 100 µM (inactive)
- GI50 [17]: > 100 µM (inactive)
- GI50 [18]: > 100 µM (inactive)
- GI50 [19]: > 100 µM (inactive)
- GI50 [20]: > 100 µM (inactive)

Compound: O=C(Oc1ccccc1)c1cc2cc(CCl)ccc2oc1=O
- GI50 [1]: 31.5 µM
- GI50 [2]: 61.9 µM (inactive)
- GI50 [3]: 71.6 µM (inactive)
- GI50 [4]: 64.3 µM (inactive)
- GI50 [5]: 19.1 µM (inactive)
- GI50 [6]: 32.6 µM (inactive)
- GI50 [7]: 28.6 µM (inactive)
- GI50 [8]: 24.3 µM (inactive)
- GI50 [9]: 15.5 µM (inactive)
- GI50 [10]: 20.1 µM (inactive)
- GI50 [11]: 32.1 µM (inactive)
- GI50 [12]: 63.4 µM (inactive)
- GI50 [13]: 19.9 µM (inactive)
- GI50 [14]: 13.4 µM (inactive)
- GI50 [15]: 18.8 µM (inactive)
- GI50 [16]: 19.4 µM (inactive)
- GI50 [17]: 34.4 µM (inactive)
- GI50 [18]: 11.6 µM (inactive)
- GI50 [19]: 24.4 µM (inactive)
- GI50 [20]: 44.6 µM (inactive)

Compound: CN1C(=O)[C@@]2(C=CC3(CC2)OCCO3)c2ccccc21
- GI50 [1]: > 48.2 µM
- GI50 [2]: > 50 µM (inactive)
- GI50 [3]: > 50 µM (inactive)
- GI50 [4]: > 50 µM (inactive)
- GI50 [5]: > 50 µM (inactive)
- GI50 [6]: > 50 µM (inactive)
- GI50 [7]: > 50 µM (inactive)
- GI50 [8]: > 50 µM (inactive)
- GI50 [9]: 21.8 µM (inactive)
- GI50 [10]: 48.5 µM (inactive)
- GI50 [11]: > 50 µM (inactive)
- GI50 [12]: > 37.5 µM (inactive)
- GI50 [13]: > 50 µM (inactive)
- GI50 [14]: > 50 µM (inactive)
- GI50 [15]: > 46.3 µM (inactive)
- GI50 [16]: > 50 µM (inactive)
- GI50 [17]: > 50 µM (inactive)
- GI50 [18]: > 50 µM (inactive)
- GI50 [19]: > 50 µM (inactive)
- GI50 [20]: > 50 µM (inactive)

Compound: CCN(CC)/[N+]([O-])=N/OCOC(C)=O
- GI50 [1]: > 100 µM
- GI50 [2]: > 100 µM (inactive)
- GI50 [3]: > 100 µM (inactive)
- GI50 [4]: > 100 µM (inactive)
- GI50 [5]: > 100 µM (inactive)
- GI50 [6]: > 100 µM (inactive)
- GI50 [7]: > 100 µM (inactive)
- GI50 [8]: 94.4 µM (inactive)
- GI50 [9]: > 100 µM (inactive)
- GI50 [10]: > 100 µM (inactive)
- GI50 [11]: > 100 µM (inactive)
- GI50 [12]: > 100 µM (inactive)
- GI50 [13]: > 100 µM (inactive)
- GI50 [14]: > 100 µM (inactive)
- GI50 [15]: > 100 µM (inactive)
- GI50 [16]: > 100 µM (inactive)
- GI50 [17]: > 100 µM (inactive)
- GI50 [18]: > 100 µM (inactive)
- GI50 [19]: > 100 µM (inactive)
- GI50 [20]: > 100 µM (inactive)
